Reference: PubChem BioAssay (NCI)
Values joined by “and” are separate entries in the source; they are usually repeats but may differ in a detail not shown here. Identical values can stand only once.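 Cultured in 96-well plates, cells were exposed to test compound for 48 hours across five concentrations. GI50: concentration for 50% inhibition of growth. TGI marks complete inhibition of growth.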

Tests used:
Experiment in all cases: growth of human tumour cells (NCI), 48 h
PC-3 prostate = tested on: PC-3 prostate
U251 CNS = tested on: U251 CNS
NCI/ADR-RES ovarian = tested on: NCI/ADR-RES ovarian
T-47D breast = tested on: T-47D breast
LOX IMVI melanoma = tested on: LOX IMVI melanoma
HT29 colon = tested on: HT29 colon
A498 renal = tested on: A498 renal
DU-145 prostate = tested on: DU-145 prostate
SK-MEL-28 melanoma = tested on: SK-MEL-28 melanoma
BT-549 breast = tested on: BT-549 breast

Structure (SMILES) | TGI (PC-3 prostate) [µM] | TGI (U251 CNS) | TGI (NCI/ADR-RES ovarian) | TGI (T-47D breast) | TGI (LOX IMVI melanoma) | TGI (HT29 colon) | TGI (A498 renal) | TGI (DU-145 prostate) [µM] | TGI (SK-MEL-28 melanoma) | TGI (BT-549 breast) [µM] | GI50 (U251 CNS) | GI50 (NCI/ADR-RES ovarian) | GI50 (LOX IMVI melanoma) | GI50 (HT29 colon) | GI50 (A498 renal)
COc1ccc([C@@]23CCC(=O)C[C@@H]2N(C)CC3)cc1OC | > 100 | > 100 µM | > 100 µM | > 100 µM | > 100 µM | > 100 µM | > 100 µM | > 100 | > 100 µM | – | – | – | – | – | –
COC1(OC)/C(=C(\N)C=O)NC(C)(C)N1O | > 100 | > 100 µM | > 100 µM | – | > 100 µM | > 100 µM | > 100 µM | > 100 | > 100 µM | > 100 | – | – | – | – | –
O=C(CCN1CCCCC1CO)Nc1ccc2c(c1)C(=O)c1ccc(NC(=O)CCN3CCCCC3CO)cc1C2=O (centres undefined) | – | 20.6 µM | – | – | 20.8 µM | 31.6 µM | 9.87 µM | – | 28.4 µM | – | – | – | – | – | –
COc1ccc(CC2C(=O)NC(C)C(=O)N(C)C3Cc4ccc(cc4)Oc4cc(ccc4O)CC(C(=O)NC(C)C(=O)NC(C)C(=O)N2C)N(C)C3=O)cc1 (centres undefined) | 0.000246 | – | 78.6 µM | 0.201 µM and 0.0219 µM | – | 0.0347 µM and 0.0161 µM and 0.152 µM | 0.0147 µM and 0.0709 µM | 0.00288 | – | – | < 0.0001 µM | 15.2 µM | < 0.0001 µM | < 0.0001 µM | –
C=C1C(=O)C[C@@]23CCC[C@@]12CC(O)C3 (some centres undefined) | – | > 100 µM | 42.8 µM | – | 31.3 µM | 33.2 µM | > 48.9 µM | – | 49.8 µM | – | – | – | – | – | –
CC(=O)OCC1OC(n2c3c(c(-c4ccco4)c(C#N)c2=S)CCCC3)C(OC(C)=O)C(OC(C)=O)C1OC(C)=O (centres undefined) | – | – | > 31.6 µM | > 31.6 µM | > 31.6 µM | > 31.6 µM | 22.1 µM | > 31.6 | > 31.6 µM | – | – | – | – | – | –
NC(CO)c1ccccc1 (centres undefined) | – | > 100 µM | – | – | > 100 µM | > 100 µM | – | – | > 100 µM | – | – | – | – | – | –
C[C@@H](C[C@@H](O)[C@H](O)C(C)(C)O)[C@H]1CC=C2[C@]3(C)[C@H](O)C[C@H]4C(C)(C)[C@H](O)CC[C@]4(C)[C@H]3CC[C@@]21C | 28 | 32.1 µM | 28.1 µM | – | 30 µM | 26.2 µM | 28.5 µM | 30.8 | 28.5 µM | 31.1 | – | – | – | – | –
COc1cc2c(cc1OC)C1Cc3ccccc3CN1CCC2 (centres undefined) | > 100 | > 100 µM | > 100 µM | > 100 µM | > 100 µM | > 100 µM | > 100 µM | > 100 | > 100 µM | – | – | – | – | – | –
CC(=O)c1c(O)c(C)c(O)c2c1OC1=CC(=O)C(C(C)=O)C(=O)C12C (centres undefined) | – | 18.4 µM and 47.6 µM | 13.5 µM and 55.7 µM | – | 33.3 µM and 37.9 µM | 29.3 µM and 70.2 µM | 0.412 µM and 0.742 µM | – | 40.9 µM and 22 µM | – | 4.13 µM and 11.3 µM | 4.05 µM and 16.7 µM | 5.53 µM and 12.6 µM | 6.28 µM and 25.7 µM | 0.232 µM and 0.507 µM
COc1ccc(C=O)cc1Oc1ccc(C[C@H]2c3c(cc(OC)c4c3Oc3cc5c(cc3O4)CCN(C)C5=O)CCN2C)cc1 | 17.5 | 22.8 µM | 16.2 µM | > 50 µM | 21.8 µM | 14.4 µM | > 50 µM | 25.2 | 22.7 µM | – | – | – | – | – | –
C=C1c2nc3ccccc3n2C=C(c2ccccc2)N1c1ccc(OC)cc1 | > 100 | > 100 µM | 71.4 µM | – | > 100 µM | – | > 100 µM | > 100 | – | 38.3 | – | – | – | – | –
COC1(OC)N=C(N)C2(C#N)/C(=N/N(C)C)CC(C)C12C#N (centres undefined) | > 100 | > 100 µM | > 100 µM | > 100 µM | > 100 µM | > 100 µM | > 100 µM | > 100 | > 100 µM | – | – | – | – | – | –
COc1cc2cc3c4c(cc(OC)c(OC)c4c2cc1OC)CCN3C(=O)OCCBr | – | > 100 µM | – | – | > 100 µM | > 100 µM | > 100 µM | – | > 100 µM | – | – | – | – | – | –
COc1ccc(S(=O)(=O)Nc2ccc(-c3csc(N4C(=O)/C(=C/C=C\c5ccccc5)N=C4c4ccccc4)n3)cc2)cc1Cl | > 100 | 76.4 µM | 73.8 µM | 57.1 µM | 46.3 µM | > 100 µM | 73.1 µM | 91.6 | > 100 µM | – | – | – | – | – | –
C=C1C(=O)O[C@H]2C(=O)[C@H](C)CCC[C@@](C)(O)/C=C\C[C@@]3(C)O[C@@H]3C[C@@H]12 | 38.6 | 34.4 µM | > 100 µM | 42.3 µM | 32.2 µM | 28.4 µM | 56.1 µM | 27.6 | – | – | – | – | – | – | –
CCOc1cc(C=O)ccc1O | > 100 | > 100 µM | > 100 µM | > 100 µM | > 100 µM | > 100 µM | – | > 100 | > 100 µM | – | – | – | – | – | –
CCOC(=O)C(Cc1c(-c2[nH]c3ccccc3c2CC(NC(=O)CNC(C)=O)C(=O)OCC)[nH]c2ccccc12)NC(=O)CNC(C)=O (centres undefined) | > 100 | > 100 µM | – | – | – | > 100 µM | > 100 µM | > 100 | > 100 µM | > 100 | – | – | – | – | –
CCN(CC)c1ccc(C(=C2C=CC(=[N+](CC)CC)C=C2)c2ccccc2)cc1 | – | 0.112 µM | – | – | 0.105 µM | – | – | – | 0.351 µM | – | – | – | – | – | –
